Test results published in patent US20250127774A1, “COMPOUNDS FOR LABELLING NUCLEIC ACID AND USES THEREOF” (THE ROYAL INSTITUTION FOR THE ADVANCEMENT OF …, priority 2022, published 2025).
“And” between values parts separate entries of the source, which are not always exact repeats. Equal entries are not always repeated. Where two headings read alike, the source gives them in different places.

Legend:
calf thymus (CT) DNA = test: Binding affinity measurements of PINK with CT-DNA (absorbance changes at 575 nm); settings: 10 μM PINK, CT-DNA 0-160 μM base pairs, 50 mM NaOAc buffer pH 5.2 (0.2% DMSO); 1 molecule per 5 base pairs; read-out: apparent dissociation constant (KD)
Procedure: (§1) B) Fluorescence changes (excitation: 500 nm, emission: 590 nm; 515 nm cutoff filter) of 20 μM PINK in the presence of 1 mM b.p. CT-DNA (50 eq) in PBS pH 7.4 (10% DMSO) followed by addition of 5-norbornene-2-methanol (2 mM, 100 eq).
To evaluate the ability of PINK (4) to undergo reversible intercalation into duplex DNA, the absorbance of PINK was monitored upon addition of calf-thymus (CT) DNA. Consistent with intercalation,^[42-44] a bathochromic shift in PINK absorbance was observed upon addition of CT DNA (FIG. 3, a). To further evaluate the binding mode, viscosity measurements of concentrated DNA solutions were conducted in presence of increasing amounts of PINK. […] By taking the maximum binding stoichiometry of PINK into account (1 molecule per 5 base pairs; see FIG. 1b), an apparent dissociation constant KD can be calculated according to KD=[(unbound PINK)*(unbound DNA binding sites)]/(PINK-bound binding sites).
Binding Affinity Measurements of PINK with CT-DNA. Binding of PINK to CT-DNA was assessed by monitoring changes of absorbance collecting measurements on a SpectraMax M5 plate reader (Molecular Devices, Sunnyvale, CA, USA) in 1 cm path-length quartz cuvettes. […] Binding of PINK to CT-DNA and determination of an apparent binding constant (KD) was calculated by plotting changes of absorbance at 575 nm.

PINK stability test = assay type: physicochemical; settings: 20 μM PINK, 1 mM b.p. CT-DNA, PBS pH 7.4 (10% DMSO)
Procedure: as §1
PINK Stability Test. Fluorescence changes (excitation: 500 nm, emission: 590 nm; 515 nm cutoff filter) of 20 μM PINK were monitored in the presence of 1 mM base pairs of calf thymus (CT) DNA (50 eq) in PBS pH 7.4 (10% DMSO) followed by addition of 5-norbornene-2-methanol (2 mM, 100 eq). Measurements were conducted on a SpectraMax M5 plate reader (Molecular Devices, Sunnyvale, CA, USA) in 1 cm path-length quartz cuvettes.

Jurkat cells = test: Resazurin combination toxicity assay; assay type: cell-based; settings: Homo sapiens
Procedure: (§2) From the single toxicity experiment, it was determined that the optimal subtoxic concentration of PINK to be used for the combination toxicity assays would be 1 μM. To test how effective the vinyl-nucleosides (VdU/VdA) in combination with PINK are at killing the cells compared to the vinyl-nucleosides alone, another resazurin reduction assay was carried out.
(§3) To determine if it is possible to treat the leukemia cells with the vinyl-nucleosides and PINK simultaneously, instead of adding them sequentially, another resazurin reduction assay using the same concentrations of each compound as in the previous combination experiment was carried out, where instead the vinyl-nucleosides and PINK were added on the same day instead of on two consecutive days.
(§4) Resazurin Combination toxicity assays. MV4-11, MOLM-13 and Jurkat cells were seeded in 96-well plates at a density of 20 000 cells/well, 25 000 cells/well and 30 000 cells/well, respectively, in triplicates. For the sequential addition, the cells were first treated with the nucleosides (VdU/VdA) diluted in fresh media in 1:4 serial dilutions (˜0.01% DMSO) at concentrations of 500-0 μM, and incubated overnight. 24h post nucleoside addition, the cells were treated with 1 μM PINK diluted in fresh media (˜1% DMSO), and incubated for 24-72h. The cells were treated with resazurin, incubated and measured, as described above. For the simultaneous addition, the cells were treated with nucleosides and PINK on the same day at the same concentrations as describes above, and incubated for 24-72h.

MV4-11 cells = test: Resazurin combination toxicity assay; assay type: cell-based; settings: Homo sapiens
Procedure: as §2, §3, §4

C57BL/6J mice = test: 5-VdU incorporation in rapidly proliferating cells in vivo; settings: 500 mg/kg 5-VdU i.p. on two subsequent days
Procedure: 5-VdU incorporation in rapidly proliferating cells in vivo. C57BL/6J mice were either injected with 200 μl 10% DMSO in 1× sterile PBS as a vehicle or 500 mg/kg 5-VdU i.p. on two subsequent days and then sacrificed. Experimental group size was n=6. (A) Bone marrow was explanted, fixed, permeabilized and stained with PINK for 4 h at RT. Nuclei were counterstained with Hoechst33342. A strong nuclear signal can be observed in the PINK treated sample when compared to the controls. (B) Small intestine and (C) spleen tissue was subjected to paraffin embedding and the slides where then stained with PINK for 4 h at RT. Nuclei were counterstained with Hoechst33342. Specific nuclear signals are visible in the PINK treated sample when compared to the controls. […] These cells can be stained with PINK in FFPE sections=in vivo DNA replication/proliferation reporter.

[1] = 48 h, variable VdU/VdA alone or with 1 μM PINK added on the same day, read-out: IC50 value (48 h) for simultaneous addition
[2] = variable VdU/VdA alone or with 1 μM PINK added 24 h post nucleoside addition, read-out: IC50 value (48 h) for sequential addition

SMILES	Kd (calf thymus (CT) DNA)	degradation of PINK on extended incubation with unmodified DNA (PINK stability test)	IC50 (Jurkat cells; [1])	IC50 (Jurkat cells; [2])	IC50 (MV4-11 cells; [1])	IC50 (MV4-11 cells; [2])	incorporation into rapidly dividing cells (bone marrow, small intestine, spleen; PINK staining) (C57BL/6J mice)	toxicity to mice (C57BL/6J mice)
Cc1nnc(-c2ccc3cc4ccc(N(C)C)cc4nc3c2)nn1 [PINK]	5 µM and 5.1 µM	little-to-no degradation						
C=Cc1cn([C@H]2C[C@H](O)[C@@H](CO)O2)c(=O)[nH]c1=O [VdU, 5-vinyl-2′-deoxyuridine]			404 µM	58 µM	124 µM	60 µM	incorporates into rapidly dividing cells in vivo	non-toxic to mice at high concentrations
